Converted amounts (≈) assume the structure as drawn. Read-outs that look alike come from different tables or passages of the source.
Experiments:
[1] = test system: Staphylococcus aureus ATCC BAA-976; assay: MIC, broth microdilution, MDR/BPSA reference strain; format: cell-based; conditions: ATCCBAA976; Staphylococcus aureus ATCC BAA-976; read-out: MIC MDR/BPSA
Description: These strains included susceptible, multidrug-resistant, and biofilm-producing strains of S. epidermidis and S. aureus (MSSE, MDR/BPSE, and MDR/BPSA, respectively). The cornerstone antibiotic linezolid served as a positive control (Table 1). The impact of structural modifications at the aryloxy fragment and the aromatic moiety bound to the propyl linker on the inhibitory activity was initially investigated. […] Further optimization focused on evaluating the impact of the type of substituent and its position on the arylsulfonamide fragment’s activity.
(§1) 2 Biological assay protocols
(§2) Microbiological tests were carried out under aseptic conditions in a laminar chamber of the 2nd […]
(§3) (BioTectum 1.2, Alchem Poland). The assessment of antimicrobial activity was carried out for final compounds in the form of free bases, soluble in DMSO (Merck, Germany), at the initial […]
(§4) concentration of 1 mg/mL. […]
were provided by Cayman Chemical, USA.
The activity of all newly synthesized compounds was tested in vitro on a panel of selected reference strains from the American Type Culture Collection (ATCC) of Gram-positive […]
(§5) 2.2 Effect of evaluated compounds on planktonic cells
(§6) The susceptibility of three reference bacterial strains (Staphylococcus epidermidis ATCC […]
(§7) Table S1) and 81 clinical MDR S. epidermidis (Table S2) to the tested compounds was assessed by determining the MIC value (Minimal Inhibitory Concentration) by microdilution in a liquid medium in 96-well flat-bottom cell culture plates (Nest Biotechnology Scientific, USA). The antibacterial properties of the compo unds were tested in the concentration range from 50 µg/mL to 0.1 µg/mL by making a series of double dilutions of the compound in liquid Mueller -Hinton II Broth Cation Adjusted (MHB II, BBL TM, USA) according to the European Committee on […]
(§8) Antimicrobial Susceptibility Testing guidelines (EUCAST).2,3 The determinations were performed twice. The MIC50 and MIC90 values were determined for each of the tested

[2] = test system: clinical MDR Staphylococcus epidermidis isolates; assay: MIC, broth microdilution, 81 clinical MDR strains; format: cell-based; conditions: Staphylococcus epidermidis
Experimental: as §1, §2, §3, §4
were provided by Cayman Chemical, USA. […]
The antibacterial activity of selected compounds was also tested on a panel of 81 unrelated, multidrug -resistant clinical strains of Staphylococcus epidermidis from the own collection of the Department of Pharmaceutical Microbiology of the Jagiellonian University Medical College.
as §5, §6, §7, §8

O=S(=O)(NC1CCN(CCC(Oc2ccc(C(F)(F)F)cc2)c2cccs2)CC1)c1cccc(C(F)(F)F)c1 (stereo not shown) [Compound 21]
MIC [1]: 50 µg/mL (≈ 84.4 µM)
MIC ([2]; clinical strain 1 (Table S2), read-out: MIC): 0.8 µg/mL (≈ 1.35 µM)
MIC ([2]; clinical strain 2 (Table S2), read-out: MIC): 6.25 µg/mL (≈ 10.5 µM)
MIC ([2]; clinical strain 3 (Table S2), read-out: MIC): 6.25 µg/mL (≈ 10.5 µM)
MIC ([2]; clinical strain 4 (Table S2), read-out: MIC): 50 µg/mL (≈ 84.4 µM)
MIC ([2]; clinical strain 5 (Table S2), read-out: MIC): 1.6 µg/mL (≈ 2.7 µM)
MIC ([2]; clinical strain 6 (Table S2), read-out: MIC): 50 µg/mL (≈ 84.4 µM)
MIC ([2]; clinical strain 7 (Table S2), read-out: MIC): 50 µg/mL (≈ 84.4 µM)
MIC ([2]; clinical strain 8 (Table S2), read-out: MIC): 6.25 µg/mL (≈ 10.5 µM)
MIC ([2]; clinical strain 9 (Table S2), read-out: MIC): 3.12 µg/mL (≈ 5.27 µM)
MIC ([2]; clinical strain 10 (Table S2), read-out: MIC): 50 µg/mL (≈ 84.4 µM)
MIC ([2]; clinical strain 11 (Table S2), read-out: MIC): 6.25 µg/mL (≈ 10.5 µM)
MIC ([2]; clinical strain 12 (Table S2), read-out: MIC): 50 µg/mL (≈ 84.4 µM)
MIC ([2]; clinical strain 13 (Table S2), read-out: MIC): 50 µg/mL (≈ 84.4 µM)
MIC ([2]; clinical strain 14 (Table S2), read-out: MIC): 50 µg/mL (≈ 84.4 µM)
MIC ([2]; clinical strain 15 (Table S2), read-out: MIC): 50 µg/mL (≈ 84.4 µM)
MIC ([2]; clinical strain 16 (Table S2), read-out: MIC): 50 µg/mL (≈ 84.4 µM)
MIC ([2]; clinical strain 17 (Table S2), read-out: MIC): 50 µg/mL (≈ 84.4 µM)
MIC ([2]; clinical strain 18 (Table S2), read-out: MIC): 50 µg/mL (≈ 84.4 µM)
MIC ([2]; clinical strain 19 (Table S2), read-out: MIC): 50 µg/mL (≈ 84.4 µM)
MIC ([2]; clinical strain 20 (Table S2), read-out: MIC): 3.12 µg/mL (≈ 5.27 µM)
MIC ([2]; clinical strain 21 (Table S2), read-out: MIC): 3.12 µg/mL (≈ 5.27 µM)
MIC ([2]; clinical strain 22 (Table S2), read-out: MIC): 6.25 µg/mL (≈ 10.5 µM)
MIC ([2]; clinical strain 23 (Table S2), read-out: MIC): 0.8 µg/mL (≈ 1.35 µM)
MIC ([2]; clinical strain 24 (Table S2), read-out: MIC): 3.12 µg/mL (≈ 5.27 µM)
MIC ([2]; clinical strain 25 (Table S2), read-out: MIC): 50 µg/mL (≈ 84.4 µM)
MIC ([2]; clinical strain 26 (Table S2), read-out: MIC): 50 µg/mL (≈ 84.4 µM)
MIC ([2]; clinical strain 27 (Table S2), read-out: MIC): 0.8 µg/mL (≈ 1.35 µM)
MIC ([2]; clinical strain 28 (Table S2), read-out: MIC): 50 µg/mL (≈ 84.4 µM)
MIC ([2]; clinical strain 29 (Table S2), read-out: MIC): 50 µg/mL (≈ 84.4 µM)
MIC ([2]; clinical strain 30 (Table S2), read-out: MIC): 50 µg/mL (≈ 84.4 µM)
MIC ([2]; clinical strain 31 (Table S2), read-out: MIC): 50 µg/mL (≈ 84.4 µM)
MIC ([2]; clinical strain 32 (Table S2), read-out: MIC): 50 µg/mL (≈ 84.4 µM)
MIC ([2]; clinical strain 33 (Table S2), read-out: MIC): 50 µg/mL (≈ 84.4 µM)
MIC ([2]; clinical strain 34 (Table S2), read-out: MIC): 50 µg/mL (≈ 84.4 µM)
MIC ([2]; clinical strain 35 (Table S2), read-out: MIC): 25 µg/mL (≈ 42.2 µM)
MIC ([2]; clinical strain 36 (Table S2), read-out: MIC): 50 µg/mL (≈ 84.4 µM)
MIC ([2]; clinical strain 37 (Table S2), read-out: MIC): 50 µg/mL (≈ 84.4 µM)
MIC ([2]; clinical strain 38 (Table S2), read-out: MIC): 50 µg/mL (≈ 84.4 µM)
MIC ([2]; clinical strain 39 (Table S2), read-out: MIC): 50 µg/mL (≈ 84.4 µM)
MIC ([2]; clinical strain 40 (Table S2), read-out: MIC): 50 µg/mL (≈ 84.4 µM)
MIC ([2]; clinical strain 41 (Table S2), read-out: MIC): 50 µg/mL (≈ 84.4 µM)
MIC ([2]; clinical strain 42 (Table S2), read-out: MIC): 6.25 µg/mL (≈ 10.5 µM)
MIC ([2]; clinical strain 43 (Table S2), read-out: MIC): 6.25 µg/mL (≈ 10.5 µM)
MIC ([2]; clinical strain 44 (Table S2), read-out: MIC): 50 µg/mL (≈ 84.4 µM)
MIC ([2]; clinical strain 45 (Table S2), read-out: MIC): 50 µg/mL (≈ 84.4 µM)
MIC ([2]; clinical strain 46 (Table S2), read-out: MIC): 50 µg/mL (≈ 84.4 µM)
MIC ([2]; clinical strain 47 (Table S2), read-out: MIC): 50 µg/mL (≈ 84.4 µM)
MIC ([2]; clinical strain 48 (Table S2), read-out: MIC): 50 µg/mL (≈ 84.4 µM)
MIC ([2]; clinical strain 49 (Table S2), read-out: MIC): 50 µg/mL (≈ 84.4 µM)
MIC ([2]; clinical strain 50 (Table S2), read-out: MIC): 50 µg/mL (≈ 84.4 µM)
MIC ([2]; clinical strain 51 (Table S2), read-out: MIC): 50 µg/mL (≈ 84.4 µM)
MIC ([2]; clinical strain 52 (Table S2), read-out: MIC): 50 µg/mL (≈ 84.4 µM)
MIC ([2]; clinical strain 53 (Table S2), read-out: MIC): 50 µg/mL (≈ 84.4 µM)
MIC ([2]; clinical strain 54 (Table S2), read-out: MIC): 50 µg/mL (≈ 84.4 µM)
MIC ([2]; clinical strain 55 (Table S2), read-out: MIC): 50 µg/mL (≈ 84.4 µM)
MIC ([2]; clinical strain 56 (Table S2), read-out: MIC): 50 µg/mL (≈ 84.4 µM)
MIC ([2]; clinical strain 57 (Table S2), read-out: MIC): 50 µg/mL (≈ 84.4 µM)
MIC ([2]; clinical strain 58 (Table S2), read-out: MIC): 50 µg/mL (≈ 84.4 µM)
MIC ([2]; clinical strain 59 (Table S2), read-out: MIC): 50 µg/mL (≈ 84.4 µM)
MIC ([2]; clinical strain 60 (Table S2), read-out: MIC): 50 µg/mL (≈ 84.4 µM)
MIC ([2]; clinical strain 61 (Table S2), read-out: MIC): 50 µg/mL (≈ 84.4 µM)
MIC ([2]; clinical strain 62 (Table S2), read-out: MIC): 50 µg/mL (≈ 84.4 µM)
MIC ([2]; clinical strain 63 (Table S2), read-out: MIC): 50 µg/mL (≈ 84.4 µM)
MIC ([2]; clinical strain 64 (Table S2), read-out: MIC): 50 µg/mL (≈ 84.4 µM)
MIC ([2]; clinical strain 65 (Table S2), read-out: MIC): 3.12 µg/mL (≈ 5.27 µM)
MIC ([2]; clinical strain 66 (Table S2), read-out: MIC): 3.12 µg/mL (≈ 5.27 µM)
MIC ([2]; clinical strain 67 (Table S2), read-out: MIC): 50 µg/mL (≈ 84.4 µM)
MIC ([2]; clinical strain 68 (Table S2), read-out: MIC): 50 µg/mL (≈ 84.4 µM)
MIC ([2]; clinical strain 69 (Table S2), read-out: MIC): 50 µg/mL (≈ 84.4 µM)
MIC ([2]; clinical strain 70 (Table S2), read-out: MIC): 50 µg/mL (≈ 84.4 µM)
MIC ([2]; clinical strain 71 (Table S2), read-out: MIC): 50 µg/mL (≈ 84.4 µM)
MIC ([2]; clinical strain 72 (Table S2), read-out: MIC): 50 µg/mL (≈ 84.4 µM)
MIC ([2]; clinical strain 73 (Table S2), read-out: MIC): 50 µg/mL (≈ 84.4 µM)
MIC ([2]; clinical strain 74 (Table S2), read-out: MIC): 50 µg/mL (≈ 84.4 µM)
MIC ([2]; clinical strain 75 (Table S2), read-out: MIC): 50 µg/mL (≈ 84.4 µM)
MIC ([2]; clinical strain 76 (Table S2), read-out: MIC): 50 µg/mL (≈ 84.4 µM)
MIC ([2]; clinical strain 77 (Table S2), read-out: MIC): 1.6 µg/mL (≈ 2.7 µM)
MIC ([2]; clinical strain 78 (Table S2), read-out: MIC): 50 µg/mL (≈ 84.4 µM)
MIC ([2]; clinical strain 79 (Table S2), read-out: MIC): 50 µg/mL (≈ 84.4 µM)
MIC ([2]; clinical strain 80 (Table S2), read-out: MIC): 50 µg/mL (≈ 84.4 µM)
MIC ([2]; clinical strain 81 (Table S2), read-out: MIC): 50 µg/mL (≈ 84.4 µM)
MIC ([2]; mean of MIC values against clinical MDR-SE isolates, read-out: mean MIC): 39.4 µg/mL (≈ 66.5 µM)
MIC50 ([2]; 81 clinical strains, concentration inhibiting growth of 50% clinical isolates): 50 µg/mL (≈ 84.4 µM)
MIC90 ([2]; 81 clinical strains, concentration inhibiting growth of 90% of clinical isolates): 50 µg/mL (≈ 84.4 µM)
